Measured values from patent publication US20150306107A1, “SAA Derivative Compound Restores eNOS And Inhibits Oxidative Stress-Induced A Diseases In Hypoxia” (JANSFAT BIOTECHNOLOGY CO., LTD., priority 2014, published 2015).

Legend:
eNOS [1] = assay: Western blotting of eNOS expression in isolated rat pulmonary artery ring, short-term (acute) hypoxia or normoxia; format: cell-based; details: acute hypoxia
Protocol: (§1) In our in vitro short-term experiment, isolated rat pulmonary artery was grown under normoxia (20% O2) or hypoxia (1% O2) at 37° C. for 24 hrs as was previously done (Wu BN, et al. Int J Immunopathol Pharmacol 24:925, 2011). The heart weight and body weight ratio (HW/BW) of the rats treated with one of SPAAX-1, SPAAX-1 RX complex, Sildenafil or Sildenafil RX complex each measured on the 21st hypoxic day. All animal care and the experimental protocols of this study were approved by the Animal Care and Use Committee of the Kaohsiung Medical University. Male Wistar rats (200-250 g), provided by the National Laboratory Animal Breeding and Research Center (Taipei, Taiwan), were housed under constant temperature and controlled illumination. Food and water were available ad libitum.
(§2) Whole right lung tissues of hypoxia-treated and untreated rats were isolated and cut into small strips and placed into an extraction buffer (Tris 10 mM, pH 7.0, NaCl 140 mM, PMSF 2 mM, DTT 5 mM, NP-40 0.5%, pepstatin A 0.05 mM and leupeptin 0.2 mM) for protein extraction, and then centrifuged at 12,500 g for 30 min. To measure the expression levels of the proteins, the total proteins were extracted and Western blotting analysis was performed as described previously (Bivalacqua T J, et al., 2013, TJ PLoSONE 8: e68028. doi:10.1371/journal. pone.0068028). Briefly, the protein extract was boiled to a ratio of 4:1 with a sample buffer (Tris 100 mM, pH 6.8, glycerol 20%, SDS 4% and bromophenol blue 0.2%). Electrophoresis was performed using 10% SDS-polyacrylamide gel (2 hr, 100 V, 40 mA, […] protein per lane). Separated proteins were transferred to PVDF membranes treated with 5% fat-free milk powder to block the nonspecific IgGs (90 min, 100 V) and incubated for one hour with a specific protein antibody. The blot was then incubated with anti-mouse or anti-goat IgG linked to alkaline phosphatase (1:1000) for 1 hr. Immunoreactive bands were visualized using horseradish peroxidase-conjugated secondary antibodies and subsequent electrochemiluminescence (ECL) detection (GE Healthcare Bio-Sciences Corp., Piscataway, N.J., U.S.A.). Mouse or rabbit monoclonal antibody of eNOS (Upstate, N.Y., U.S.A.), sGCα (Sigma-Adrich, CA, U.S.A., sGCβ (Santa Cruz, Calif., U.S.A.), PDE-5A (BD Tansduction, San Jose, Calif., U.S.A.), PKG (Calbiochem, San Diego, Calif., U.S.A.) ROCKII (Upstate, N.Y., U.S.A.), RhoA (Santa Cruze, Calif., U.S.A.) and the loading control protein β-actin (Sigma-Adrich, MO, U.S.A.) were used in our Western blot analysis.
(§3) The Western blotting analysis measurements were performed as per lung tissue.

VEGF [2] = assay: Western blotting of VEGF expression in isolated rat pulmonary artery ring, short-term (acute) hypoxia; format: cell-based
Protocol: as §1, §2, §3

ROCK II [3] = assay: Western blotting of ROCK II expression in isolated rat pulmonary artery ring, short-term (acute) hypoxia or normoxia; format: cell-based; details: acute hypoxia; Normoxia 100, Hypoxia 560 ± 21; listed as 1007
Protocol: as §1, §2, §3

eNOS [4] = assay: Western blotting of eNOS expression in rat carvenosus strip, acute hypoxia; format: cell-based; design: unit not given here; details: Normoxia 100, Hypoxia 62.4 ± 5.5, listed as 1007
VEGF [5] = assay: Western blotting of VEGF expression in rat carvenosus strip, acute hypoxia; format: cell-based; design: unit not given here; details: Normoxia 100, Hypoxia 170 ± 15, listed as 1007
ROCK II [6] = assay: Cigarette smoking-induced Rho/ROCK activation of rat pulmonary artery ring; format: in vivo; details: Intraperitoneal (100 mg/kg) 1 h prior to smoke exposure, Non-Smoking control 100, Smoking 530 ± 34
Protocol: Intraperitoneal SAA complex (100 mg/kg in 200 μl of the solution) or 200 μl of saline (control) were given to animals through intraperitoneal injection 1 h prior to smoke exposure.
as §2

ROCK II [7] = assay: Streptozotocin (STZ) induced RhoA/ROCKII activation of rat carvenosa tissue; format: in vivo; details: STZ model; 2.5 mg/kg; Control 100, STZ 142 ± 28
Protocol: (§4) Electrophoresis was performed using 10% SDS-polyacrylamide gel (2 hr, 100 V, 40 mA, […] protein per lane). Separated proteins were transferred to PVDF membranes treated with 5% fat-free milk powder to block the nonspecific IgGs (90 min, 100 V) and incubated for one hour with a specific protein antibody. The blot was then incubated with anti-mouse or anti-goat IgG linked to alkaline phosphatase (1:1000) for 1 hr. Immunoreactive bands were visualized using horseradish peroxidase-conjugated secondary antibodies and subsequent electrochemiluminescence (ECL) detection (GE Healthcare Bio-Sciences Corp., Piscataway, N.J., U.S.A.). Mouse or rabbit monoclonal antibody of eNOS (Upstate, N.Y., U.S.A.), sGCα (Sigma-Adrich, CA, U.S.A., sGCβ (Santa Cruz, Calif., U.S.A.), PDE-5A (BD Tansduction, San Jose, Calif., U.S.A.), PKG (Calbiochem, San Diego, Calif., U.S.A.) ROCKII (Upstate, N.Y., U.S.A.), RhoA (Santa Cruze, Calif., U.S.A.) and the loading control protein β-actin (Sigma-Adrich, MO, U.S.A.) were used in our Western blot analysis.

eNOS [8] = assay: Streptozotocin (STZ) induced eNOS down-regulation of rat carvenosa tissue; format: in vivo; details: STZ model; 2.5 mg/kg; Control 100, STZ 60 ± 7.3
Protocol: as §4

ROCK II [9] = assay: Cigarette smoking-induced Rho/ROCK activation of rat pulmonary artery ring; format: in vivo; details: Nebulization (2.5 mM), Non-Smoking control 100, Smoking 540 ± 28
sGCα1 [10] = assay: Western blotting of sGCα1 expression in isolated pulmonary artery, short-term hypoxia; format: cell-based, rat
Protocol: as §1
Whole right lung tissues of hypoxia-treated and untreated rats were isolated and cut into small strips and placed into an extraction buffer (Tris 10 mM, pH 7.0, NaCl 140 mM, PMSF 2 mM, DTT 5 mM, NP-40 0.5%, pepstatin A 0.05 mM and leupeptin 0.2 mM) for protein extraction, and then centrifuged at 12,500 g for 30 min. To measure the expression levels of the proteins, the total proteins were extracted and Western blotting analysis was performed as described previously (Bivalacqua T J, et al., 2013, TJ PLoSONE 8: e68028. doi:10.1371/journal. pone.0068028). […]

hypoxic rats [11] = assay: Hemodynamics of rats with hypoxic PAH, chronic hypoxia 21 days; format: in vivo, rat; details: 5 mg/kg/day, p.o.
Text: Int J Immunopathol Pharmacol 24:925, 2011). The heart weight and body weight ratio (HW/BW) of the rats treated with one of […] complex, Sildenafil or Sildenafil RX complex each measured on the 21st hypoxic day. All animal care and the experimental protocols of this study were approved by the Animal Care and Use Committee of the Kaohsiung Medical University. Male Wistar rats (200-250 g), provided by the National Laboratory Animal Breeding and Research Center (Taipei, Taiwan), were housed under constant temperature and controlled illumination. Food and water were available ad libitum. Normoxic rats were housed in room temperature air at normal atmospheric pressure (760 mm Hg). […] After completion of the exposure, tissues were prepared as indicated for contraction measurements, Western blot analysis, RNA extraction, or morphological analysis. […] Their breathing was normal and their body temperature was maintained at 37° C. […] The animals were then sacrificed by the administration of an overdose of urethane.

hypoxic rats [12] = assay: Pulmonary artery wall thickness and muscularization (HE staining) after long-term hypoxia; format: in vivo, rat
Protocol: (§5) The right lobes of the rat lungs and heart of six rats from each group were cut and soaked in formalin, dehydrated through graded alcohols, and embedded in paraffin wax. The lung tissue specimens fixed with formalin (4%) were embedded in paraffin for one hour at 4° C., cut into 4-μm-thick sections, and subjected to H&E staining before examination by light microscope. In our histopathological study, we measured the thickening of the medial wall of the small intrapulmonary arteries under an Eclipse TE2000-S (Nikon) microscope. In the heart tissues, the 4-μm-thick paraffin sections were cut from paraffin-embedded tissue blocks and de-paraffinized by immersion in xylene and rehydrated as previously described (Bivalacqua T J, et al., PLoSONE 8: e68028. doi:10.1371/journal. pone.0068028). The slices were then dyed with H&E. After gently rinsing with water, each slide was dehydrated through graded alcohols and finally soaked in xylene twice. The relative cardiac weight of right ventricle (RV)/[left ventricle (LV)+intraventricular septum (S)] ratio (i.e. right heart index) was calculated using right ventricle/left ventricle+septum (RV/LV+S). Measurements were obtained with Histolab software (Microvision Instruments, Evry, France).

hypoxic rats [13] = assay: Right ventricular hypertrophy (RV/LV+S, right heart index) after long-term hypoxia; format: in vivo, rat; details: compared to the hypoxia state
Protocol: as §5

eNOS [14] = assay: Immunohistochemistry of eNOS in pulmonary artery wall after long-term hypoxia; format: in vivo, rat
Protocol: (§6) For histological analysis, the rat pulmonary right lung sections or pulmonary artery were fixed in 4% formaldehyde for 1 hour at 4° C. After washing with phosphate buffer saline (PBS), they were sent for paraffin-embedded serial-sections. Serial cross-sections 7 μm thick were obtained from the cross-section of each pulmonary artery. Tissue sections were deparaffinized and rehydrated in an ethanol series. After tissue rehydration, endogenous peroxidase activity was quenched with 3% hydrogen peroxide for 30 minutes, and the sections were gently washed in PBS. Non-specific binding was blocked by incubation with 1% nonimmune bovine serum albumin (BSA) in PBS for 30 minutes at room temperature.
(§7) The tissue sections were incubated for 1 hour at room temperature with antibody against VEGF (ab1442, Millipore) or against eNOS (ab5589, Abcam) diluted 1:200 in PBS with 1% BSA. After being washed with PBS, the sections were incubated for 1 hour at room temperature with biotinylated goat antibody against rabbit (Dako, E-0432) and diluted 1:200 in PBS for 30 minutes at room temperature. The reaction was visualized by the addition of 3-3-diaminobenzidine (DAB) in a working solution of DAB substrate kit for peroxidase (vector lab, SK-4100) at room temperature for 5 minutes. The sections were washed in PBS for 10 minutes between each step, and counterstained with haematoxylin. […]

VEGF [15] = assay: Immunohistochemistry of VEGF in pulmonary artery wall after long-term hypoxia; format: in vivo, rat
Protocol: as §6, §7

eNOS [16] = assay: Western blotting of eNOS in lung tissue after long-term hypoxia; format: in vivo, rat; details: hypoxia 21 days; compared to normoxia control
sGCα1 [17] = assay: Western blotting of sGCα1 in lung tissue after long-term hypoxia; format: in vivo, rat; details: hypoxia 21 days; compared to normoxia control
PKG = assay: Western blotting of PKG in lung tissue after long-term hypoxia; format: in vivo, rat; details: hypoxia 21 days
Protocol: as §2, with “Mouse or rabbit monoclonal antibody of eNOS (Upstate, N.Y., U.S.A.), sGCα (Sigma-Adrich, CA, U.S.A., sGCβ (Santa Cruz, Calif., U.S.A.), PDE-5A (BD Tansduction, San Jose, Calif., U.S.A.), PKG (Calbiochem, San Diego, Calif., U.S.A.) ROCKII (Upstate, N.Y., U.S.A.), RhoA (Santa Cruze, Calif., U.S.A.) and the loading control protein β-actin (Sigma-Adrich, MO, U.S.A.) were used in our Western blot analysis.” left out

ROCK II [18] = assay: Western blotting of ROCK II in lung tissue after long-term hypoxia; format: in vivo, rat; details: hypoxia 21 days; hypoxia 144.7±12.6%
VEGF [19] = assay: Western blotting of VEGF in lung tissue after long-term hypoxia; format: in vivo, rat; details: hypoxia 21 days; hypoxia 168.9±24.6%
PDE5A = details: hypoxia 21 days; % of the normal level; hypoxia 43.8±12.6%
[20] = system: reactive oxygen species (ROS) of lung tissues; details: long-term hypoxia
Protocol: In our in vivo hypoxic experiments, 10-week old male Wistar rats were equally divided into four groups: a normoxia group, a hypoxia group, a hypoxia+SPAAX-1 or SPAAX-1 RX complex group, and a hypoxia+Sildenafil or Sildenafil RX complex group. All the rats were maintained on a 12-h light/12-hr dark cycle at 25±1° C. and were provided with food and water ad libitum. The normoxia group was housed in standard normoxic conditions and the other three treated groups were continuously housed in a hypoxic chamber (10% O2) for 21 days, except for a 30-min interval each day when the chamber was cleaned (FIG. 2). During which, a normoxic gas mixture was prepared from compressed air.
Pulmonary ROS was measured using 2′-7′-dichloro-fluorescein (H2DCF-DA, Molecular Probe, USA). Briefly, 10 μl of lung tissue extract was diluted 100-fold with cold PBS and labelled with 5 μmol/L 2′-7′-dichlorofluorescein, and the mixture was incubated at 37° C. for 30 minutes and put in a centrifuge (1000 rpm) for 5 min. Fluorescence was measured at 485 nm excitation and 530 nm emission to determine the concentration of H2O2 (FLUOstar Galaxy, Germany).

NOx in lung tissue = details: 21 days of hypoxia; control group 100%, hypoxia 59.8±3.7%
Protocol: All the rats were maintained on a 12-h light/12-hr dark cycle at 25±1° C. and were provided with food and water ad libitum. The normoxia group was housed in standard normoxic conditions and the other three treated groups were continuously housed in a hypoxic chamber (10% O2) for 21 days, except for a 30-min interval each day when the chamber was cleaned (FIG. 2). During which, a normoxic gas mixture was prepared from compressed air.
Production of NO, represented by its metabolite nitrate+nitrite (NOx), in lung tissue extracts was determined using the Griess method (Chung H H et al, Br J Pharmacol 160: 971, 2010; Vascular Pharmacology 53: 239, 2010). The three step Greiss test converts nitrate (NO3^−) into nitrite (NO2^−), resulting in a total NO2^− concentration from a standard calibration curve. The lung tissue extracts were homogenized, washed with PBS and incubated in a lysis buffer in addition to a protease inhibitor cocktail (Sigma, St. Louis, Mo.) to obtain the extracts of lung proteins. […] The samples were then incubated (25° C, 10 min) with Griess reagent [N-(1-naphthyl)-ethylenediamine: 0.2% (w/v), sulphanilamide: 2% (w/v), solubilized in double-distilled water: 95% and phosphoric acid: 5% (v/v)] and the absorbance measured at 540 nm. […]

## CCCc1nn(C)c2c(=O)[nH]c(-c3cc(S(=O)(=O)N4CCN(C)CC4)ccc3OCC)nc12.O=C1OC(C(O)CO)C(O)=C1O [Reagent 1007, Sildenafil L-ascorbate complex]
eNOS [1]; Normoxia 100, Hypoxia 65.3 ± 7.8, listed as 1007
  eNOS expression, Pulmonary Artery Ring: 160 ± 5.8
VEGF [2]; Normoxia 100, Hypoxia 175 ± 14, listed as 1007
  VEGF expression, Pulmonary Artery Ring: 92 ± 6.4
ROCK II [3]
  ROCK II expression, Pulmonary Artery Ring: 190 ± 7.7
eNOS [4]
  eNOS expression, Carvenosus: 142 ± 6.9
VEGF [5]
  VEGF expression, Carvenosus: 94 ± 6.8
ROCK II [6]
  ROCK II of pulmonary artery ring: 84 ± 8.2
ROCK II [7]
  ROCK II, Carvanosus tissue: 38 ± 5.1%
eNOS [8]
  eNOS, Carvanosus tissue: 84 ± 8.2%
ROCK II [9]
  ROCK II of pulmonary artery ring: 66 ± 5.1

## CCCc1nn(C)c2c(=O)[nH]c(-c3cc(S(=O)(=O)N4CCN(C)CC4)ccc3OCC)nc12.O=C1OC(C(O)CO)C(O)=C1O [Sildenafil ascorbate complex]
eNOS [1]; isolated pulmonary artery
  eNOS in acute hypoxia: restored
VEGF [2]; isolated pulmonary artery
  VEGF in acute hypoxia: inhibited
sGCα1 [10]
  SGC-a in hypoxia: neither SPAAX-1 ascorbate complex nor Sildenafil ascorbate complex significantly affected
Hypoxic rats [11]
  BW (body weight): 275.1 ± 10.4 g
Hypoxic rats [11]; normoxia 12.9 ± 0.9, hypoxia 26.5 ± 0.6
  MPAP (mean pulmonary arterial pressure): 19.8±0.7 mmHg
Hypoxic rats [12]; hypoxia 21 days, 5 mg/kg/day, hypoxia 165.8±5.4%
  hypoxia-induced pulmonary artery wall thickness: inhibited
Hypoxic rats [12]; hypoxic rats, versus vehicle only
  muscularizations of distal pulmonary artery (HE staining): significantly lower
Hypoxic rats [13]
  thickness of Right ventricular: reduced
eNOS [14]
  eNOS immunostaining reactivity of pulmonary artery: restored the decay of eNOS
VEGF [15]
  VEGF immunostaining reactivity of pulmonary artery: reduced
eNOS [16]
  eNOS expression in lung tissue: 102.6±7.7%
sGCα1 [17]
  sGCα1 expression in lung tissue: 72.0±4.7%
PKG
  PKG expression in lung tissue: 68.7±3.7%
ROCK II [18]
  ROCKII expression in lung tissue: 97.4±10.9%
VEGF [19]
  VEGF expression in lung tissue: 125.7±22.5%
PDE5A
  PDE5A expression in lung tissue: 109.0±3.8%
[20]
  hypoxia-induced increase of dichlorofluorescein (ROS of lung tissues): reduced
NOx in lung tissue
  levels of NOx in lung tissue: 84.5±14.2%
